How the values were obtained:
Assay in all cases: relative viability (nuclei count vs DMSO), 5 days (fraction); higher = more cells survive
BI-2536 + Foretinib = compound: CC[C@@H]1C(=O)N(C)c2cnc(Nc3ccc(C(=O)NC4CCN(C)CC4)cc3OC)nc2N1C1CCCC1 [BI-2536] + COc1cc2c(Oc3ccc(NC(=O)C4(C(=O)Nc5ccc(F)cc5)CC4)cc3F)ccnc2cc1OCCCN1CCOCC1 [Foretinib] (partner 0.25 µM)
Procedure, shortened: (§1)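 For relative viability, nuclei counts in treated wells were divided by those in vehicle wells. Lung cancer cell lines had been pin-tool dosed in 1536-well plates the day after seeding and cultured for 5 days, then fixed and stained in one step (final 0.05% Triton X-100, 1% formaldehyde, 1 ug/ml Hoechst) and imaged at 4×. Doses were one drug alone or a fixed anchor-drug dose plus five library-drug doses (not always all listed) in √10 steps, and values are duplicate-plate medians.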

BI-2536 + Crizotinib = compound: CC[C@@H]1C(=O)N(C)c2cnc(Nc3ccc(C(=O)NC4CCN(C)CC4)cc3OC)nc2N1C1CCCC1 [BI-2536] + C[C@@H](Oc1cc(-c2cnn(C3CCNCC3)c2)cnc1N)c1c(Cl)ccc(F)c1Cl [Crizotinib] (partner 1 µM)
Procedure, shortened: as §1

[1] = compound: CC1CC(=O)N(C2=CN=C(N=C2N1C3CCCC3)NC4=C(C=C(C=C4)C(=O)NC5CCN(CC5)C)OC)C [NPK76-II-72-1] + Cc1nc(NC(=O)N2CCC[C@H]2C(N)=O)sc1-c1ccnc(C(C)(C)C(F)(F)F)c1 [Alpelisib] (partner 2 µM)
Procedure, shortened: as §1

[2] = compound: CC1CC(=O)N(C2=CN=C(N=C2N1C3CCCC3)NC4=C(C=C(C=C4)C(=O)NC5CCN(CC5)C)OC)C [NPK76-II-72-1] + Cc1nc(Nc2ncc(C(=O)Nc3c(C)cccc3Cl)s2)cc(N2CCN(CCO)CC2)n1 [Dasatinib] (partner 0.075 µM)
Procedure, shortened: as §1

Cell Line	relative viability (BI-2536 + Foretinib; first compound 0.01 µM)	relative viability (BI-2536 + Foretinib; first compound 0.03162 µM)	relative viability (BI-2536 + Foretinib; first compound 0.1 µM)	relative viability (BI-2536 + Foretinib; first compound 0.3162 µM)	relative viability (BI-2536 + Foretinib; first compound 1 µM)	relative viability (BI-2536 + Crizotinib; first compound 0.01 µM)	relative viability (BI-2536 + Crizotinib; first compound 0.03162 µM)	relative viability (BI-2536 + Crizotinib; first compound 0.1 µM)	relative viability (BI-2536 + Crizotinib; first compound 0.3162 µM)	relative viability (BI-2536 + Crizotinib; first compound 1 µM)	relative viability ([1]; first compound 0.01 µM)	relative viability ([1]; first compound 0.03162 µM)	relative viability ([1]; first compound 0.1 µM)	relative viability ([1]; first compound 0.3162 µM)	relative viability ([1]; first compound 1 µM)	relative viability ([2]; first compound 0.01 µM)	relative viability ([2]; first compound 0.03162 µM)	relative viability ([2]; first compound 0.1 µM)	relative viability ([2]; first compound 0.3162 µM)	relative viability ([2]; first compound 1 µM)
LOU-NH91	0.987	0.861	0.857	0.363	0.273	0.697	0.671	0.719	0.325	0.307	0.682	0.72	0.719	0.563	0.814	0.52	0.498	0.528	0.401	0.612
LU99A	0.716	0.812	0.329	0.222	0.175	0.527	0.526	0.218	0.212	0.184	0.462	0.578	0.576	0.48	0.563	0.404	0.505	0.51	0.442	0.674
LXF-289	1.03	0.826	0.613	0.0393	0.0552	0.822	0.693	0.456	0.0566	0.0678	0.987	1.07	1.05	1.01	1.05	0.211	0.199	0.199	0.218	0.238
NCI-H23	0.954	0.813	0.229	0.153	0.162	0.622	0.398	0.426	0.146	0.141	0.759	0.871	–	0.657	0.804	0.752	0.771	0.565	0.859	0.776
NCI-H322M	0.98	0.842	0.834	0.389	0.319	0.992	0.721	0.92	0.346	0.308	0.781	0.73	0.766	0.922	0.818	0.268	0.241	0.249	0.234	0.256
NCI-H358	0.623	0.598	0.08	0.101	0.0984	0.446	0.259	0.22	0.173	0.139	0.876	0.827	0.884	0.508	1.01	0.162	0.14	0.156	–	0.149
NCI-H441	0.918	0.673	0.261	0.194	0.222	0.503	0.393	0.218	0.154	0.133	0.536	0.648	0.866	0.767	0.901	0.565	0.709	0.452	0.541	0.727
NCI-H460	1.11	1.06	0.147	0.0166	0.02	0.966	0.842	0.0283	0.0109	0.0112	0.469	0.541	0.478	0.442	0.497	0.512	0.543	0.497	0.458	0.501
NCI-H520	0.678	0.632	0.242	0.184	0.218	0.764	0.323	0.202	0.184	0.117	0.918	1.03	0.909	0.859	0.829	0.203	0.172	0.178	0.187	0.252
NCI-H596	0.642	0.955	0.803	0.292	0.205	0.948	1.05	0.938	0.493	0.443	0.523	0.448	0.405	0.479	0.498	0.544	0.668	0.551	0.591	0.557
NCI-H647	1.35	1.16	0.649	0.101	0.128	1.15	0.418	0.425	0.113	0.115	0.985	1.28	–	1.02	1.18	0.215	0.212	0.131	0.146	0.169
NCI-H650	0.981	0.952	0.678	0.207	0.155	0.597	0.347	0.271	0.21	0.17	1.15	1.23	0.952	–	1.13	0.457	0.455	0.411	0.423	0.494
NCI-H661	1.13	0.889	0.388	0.296	0.309	0.97	0.928	0.854	0.381	0.262	0.609	0.665	0.886	0.451	0.797	0.825	0.914	0.94	0.729	1.12
NCI-H727	0.818	0.888	0.711	0.515	0.371	0.939	0.7	0.364	0.331	0.295	0.476	0.516	0.626	0.543	0.713	0.327	0.298	0.316	0.397	0.409
NCI-H838	0.953	1.06	0.636	0.145	0.134	0.886	0.711	0.232	0.156	0.114	0.974	0.942	0.972	0.948	1.02	0.28	0.247	0.253	0.265	0.292
NCI-H1355	0.871	0.968	0.601	0.149	0.18	1.06	1.1	0.796	0.198	0.184	0.834	0.827	0.544	0.755	0.849	0.689	0.627	0.744	0.617	0.731

Cell Line	relative viability (BI-2536 + Foretinib; first compound 0.01 µM)	relative viability (BI-2536 + Foretinib; first compound 0.03162 µM)	relative viability (BI-2536 + Foretinib; first compound 0.1 µM)	relative viability (BI-2536 + Foretinib; first compound 0.3162 µM)	relative viability (BI-2536 + Foretinib; first compound 1 µM)	relative viability (BI-2536 + Crizotinib; first compound 0.01 µM)	relative viability (BI-2536 + Crizotinib; first compound 0.03162 µM)	relative viability (BI-2536 + Crizotinib; first compound 0.1 µM)	relative viability (BI-2536 + Crizotinib; first compound 0.3162 µM)	relative viability (BI-2536 + Crizotinib; first compound 1 µM)	relative viability ([1]; first compound 0.01 µM)	relative viability ([1]; first compound 0.03162 µM)	relative viability ([1]; first compound 0.1 µM)	relative viability ([1]; first compound 0.3162 µM)	relative viability ([1]; first compound 1 µM)	relative viability ([2]; first compound 0.01 µM)	relative viability ([2]; first compound 0.03162 µM)	relative viability ([2]; first compound 0.1 µM)	relative viability ([2]; first compound 0.3162 µM)	relative viability ([2]; first compound 1 µM)
NCI-H1437	1.25	1.18	0.852	0.198	0.179	0.812	0.593	0.418	0.117	0.116	0.972	0.945	0.974	0.898	1	0.416	0.388	0.321	0.33	0.417
NCI-H1563	0.905	1.06	0.923	0.67	0.552	0.902	0.817	0.822	0.621	0.561	0.859	0.939	0.948	0.833	0.955	0.465	0.416	0.469	0.461	0.425
NCI-H1651	0.628	0.776	0.536	0.0828	0.0854	0.85	0.889	0.81	0.358	0.101	0.887	1.03	0.893	0.852	1.04	0.386	0.46	0.413	0.429	0.419
NCI-H1666	1.02	0.981	0.826	0.447	0.421	0.924	0.899	0.503	0.306	0.321	0.951	0.957	1.02	0.911	1.01	0.705	0.841	0.723	0.832	0.912
NCI-H1734	0.886	0.889	0.464	0.199	0.176	0.644	0.548	0.35	0.204	0.158	0.675	0.628	0.722	0.599	0.86	0.513	0.493	0.455	0.437	0.509
NCI-H1755	0.949	0.819	0.618	0.27	0.292	0.893	0.751	0.594	0.315	0.25	0.883	0.983	0.91	0.896	0.938	0.377	0.448	0.429	0.357	0.497
NCI-H1915	1.13	0.975	0.618	0.16	0.143	0.931	0.549	0.549	0.116	0.108	1.07	1.06	1.05	1.01	1.1	0.324	0.352	0.324	0.351	0.302
NCI-H1944	0.822	1.09	0.907	0.134	0.178	1.14	1.3	1.21	0.184	0.147	0.801	0.81	0.871	0.715	0.928	0.205	0.219	0.224	0.221	0.226
NCI-H1975	0.942	0.85	0.508	0.148	0.114	1.12	0.504	0.595	0.185	0.166	0.569	0.691	0.592	0.622	0.665	0.336	0.402	0.359	0.439	0.382
NCI-H1993	0.774	0.828	0.694	0.634	0.537	0.945	0.906	0.621	0.57	0.693	0.706	0.65	0.62	0.655	0.664	0.442	0.654	0.619	0.548	0.759
NCI-H2009	1.18	0.94	0.547	0.265	0.279	0.962	0.696	0.287	0.191	0.16	1.19	1.25	1.02	1.14	1.15	0.297	0.342	0.301	0.287	0.317
NCI-H2023	0.864	0.914	0.671	0.0855	0.0903	0.582	0.493	0.346	0.0851	0.0743	0.568	0.691	0.592	0.529	0.548	0.511	0.63	0.605	0.583	0.603
NCI-H2085	1.02	0.686	0.707	0.199	0.276	0.895	0.751	0.578	0.254	0.307	0.889	0.946	0.932	0.899	1	0.258	0.266	0.24	0.227	0.22
NCI-H2087	1.03	1.17	0.476	0.133	0.124	0.892	0.771	0.518	0.169	0.139	1.1	1.1	1.07	1.01	1.48	0.873	0.873	0.813	0.941	0.71
NCI-H2126	1.43	1.28	1.05	0.309	0.27	1.04	0.85	0.85	0.341	0.253	0.759	0.81	0.752	0.71	0.734	0.594	0.591	0.58	0.607	0.709
NCI-H2170	1.03	1.02	0.799	0.219	0.208	1.09	1.13	0.611	0.244	0.288	0.772	0.839	0.777	–	0.789	0.599	0.487	0.598	0.315	0.762
